PubChem BioAssay (NCI)
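Briefly, cells in 96-well plates were exposed to five compound concentrations for 48 h, and endpoints were estimated by linear interpolation. At the GI50, growth is halved. Definition used: TGI = concentration required for complete inhibition of growth.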

Assays:
Test in all cases: NCI anticancer screen, dose series, 48 h
UO-31 renal = test system: UO-31 renal
OVCAR-8 ovarian = test system: OVCAR-8 ovarian
NCI-H522 lung = test system: NCI-H522 lung
SK-MEL-5 melanoma = test system: SK-MEL-5 melanoma
MDA-MB-468 breast = test system: MDA-MB-468 breast
MDA-MB-231 breast = test system: MDA-MB-231 breast
LOX IMVI melanoma = test system: LOX IMVI melanoma
SR leukemia = test system: SR leukemia
HOP-92 NSCLC = test system: HOP-92 NSCLC
TK-10 renal = test system: TK-10 renal
UACC-62 melanoma = test system: UACC-62 melanoma
RPMI-8226 leukemia = test system: RPMI-8226 leukemia
SW-620 colon = test system: SW-620 colon
SNB-75 CNS = test system: SNB-75 CNS
SF-295 CNS = test system: SF-295 CNS
CCRF-CEM leukemia = test system: CCRF-CEM leukemia
A549 NSCLC = test system: A549 NSCLC
786-0 renal = test system: 786-0 renal
K-562 leukemia = test system: K-562 leukemia
SN12C renal = test system: SN12C renal
EKVX NSCLC = test system: EKVX NSCLC
NCI-H23 lung = test system: NCI-H23 lung
SF-268 CNS = test system: SF-268 CNS
U251 CNS = test system: U251 CNS
HCC-2998 colon = test system: HCC-2998 colon
SF-539 CNS = test system: SF-539 CNS
IGROV1 ovarian = test system: IGROV1 ovarian
MOLT-4 leukemia = test system: MOLT-4 leukemia
SK-OV-3 ovarian = test system: SK-OV-3 ovarian
MDA-MB-435 = test system: MDA-MB-435
HS 578T breast = test system: HS 578T breast
NCI-H460 lung = test system: NCI-H460 lung
A498 renal = test system: A498 renal
OVCAR-4 ovarian = test system: OVCAR-4 ovarian
KM12 colon = test system: KM12 colon
UACC-257 melanoma = test system: UACC-257 melanoma
RXF 393 renal = test system: RXF 393 renal
SNB-19 CNS = test system: SNB-19 CNS
PC-3 prostate = test system: PC-3 prostate
HT29 colon = test system: HT29 colon
ACHN renal = test system: ACHN renal
OVCAR-3 ovarian = test system: OVCAR-3 ovarian
NCI-H226 lung = test system: NCI-H226 lung
MCF7 breast = test system: MCF7 breast
HL-60(TB) leukemia = test system: HL-60(TB) leukemia
SK-MEL-2 melanoma = test system: SK-MEL-2 melanoma
MALME-3M melanoma = test system: MALME-3M melanoma
SK-MEL-28 melanoma = test system: SK-MEL-28 melanoma
BT-549 breast = test system: BT-549 breast
OVCAR-5 ovarian = test system: OVCAR-5 ovarian
T-47D breast = test system: T-47D breast
M14 melanoma = test system: M14 melanoma
COLO 205 colon = test system: COLO 205 colon
DU-145 prostate = test system: DU-145 prostate
CAKI-1 renal = test system: CAKI-1 renal
NCI/ADR-RES ovarian = test system: NCI/ADR-RES ovarian
HCT-116 colon = test system: HCT-116 colon
HCT-15 colon = test system: HCT-15 colon
HOP-62 NSCLC = test system: HOP-62 NSCLC

Question: Which results are given for `COc1ccc(Cc2nn(CC(=O)N/N=C/c3ccc(Br)cc3)c(=O)c3c(C)noc23)cc1`?
Answer: GI50 (UO-31 renal): 2.98 µM; TGI (UO-31 renal): 15.3 µM; GI50 (OVCAR-8 ovarian): 17.4 µM; TGI (OVCAR-8 ovarian): > 100 µM; GI50 (NCI-H522 lung): 8.77 µM; TGI (NCI-H522 lung): 41.6 µM; GI50 (SK-MEL-5 melanoma): > 100 µM; TGI (SK-MEL-5 melanoma): > 100 µM; GI50 (MDA-MB-468 breast): 7.58 µM; TGI (MDA-MB-468 breast): 27.4 µM; GI50 (MDA-MB-231 breast): 5.73 µM; TGI (MDA-MB-231 breast): 25.8 µM; GI50 (LOX IMVI melanoma): 3.54 µM; TGI (LOX IMVI melanoma): 52.8 µM; GI50 (SR leukemia): 14.6 µM; TGI (SR leukemia): > 100 µM; GI50 (HOP-92 NSCLC): 4.98 µM; TGI (HOP-92 NSCLC): 21.2 µM; GI50 (TK-10 renal): 10.1 µM; TGI (TK-10 renal): 23.9 µM; GI50 (UACC-62 melanoma): 14.1 µM; TGI (UACC-62 melanoma): > 100 µM; GI50 (RPMI-8226 leukemia): 69.9 µM; TGI (RPMI-8226 leukemia): > 100 µM; GI50 (SW-620 colon): 3.07 µM; TGI (SW-620 colon): > 100 µM; GI50 (SNB-75 CNS): 0.287 µM; TGI (SNB-75 CNS): 1.41 µM; GI50 (SF-295 CNS): 10.3 µM; TGI (SF-295 CNS): 23.4 µM; GI50 (CCRF-CEM leukemia): 7.87 µM; TGI (CCRF-CEM leukemia): > 100 µM; GI50 (A549 NSCLC): 1.49 µM; TGI (A549 NSCLC): > 100 µM; GI50 (786-0 renal): 1.48 µM; TGI (786-0 renal): 6.94 µM; GI50 (K-562 leukemia): 14.8 µM; TGI (K-562 leukemia): > 100 µM; GI50 (SN12C renal): 1.63 µM; TGI (SN12C renal): 11.5 µM; GI50 (EKVX NSCLC): 14.5 µM; TGI (EKVX NSCLC): 83.1 µM; GI50 (NCI-H23 lung): 7.06 µM; TGI (NCI-H23 lung): 22.8 µM; GI50 (SF-268 CNS): 14.8 µM; TGI (SF-268 CNS): 52.6 µM; GI50 (U251 CNS): 2.03 µM; TGI (U251 CNS): 13.4 µM; GI50 (HCC-2998 colon): 34.5 µM; TGI (HCC-2998 colon): > 100 µM; GI50 (SF-539 CNS): 11.9 µM; TGI (SF-539 CNS): 25.4 µM; GI50 (IGROV1 ovarian): 12.4 µM; TGI (IGROV1 ovarian): 32.3 µM; GI50 (MOLT-4 leukemia): 7.82 µM; TGI (MOLT-4 leukemia): > 100 µM; GI50 (SK-OV-3 ovarian): 5.55 µM; TGI (SK-OV-3 ovarian): 20.1 µM; GI50 (MDA-MB-435): 30.5 µM; TGI (MDA-MB-435): > 100 µM; GI50 (HS 578T breast): 3.61 µM; TGI (HS 578T breast): 61.2 µM; GI50 (NCI-H460 lung): 1.56 µM; TGI (NCI-H460 lung): 16.4 µM; GI50 (A498 renal): 3.01 µM; TGI (A498 renal): 8.8 µM; GI50 (OVCAR-4 ovarian): 0.511 µM; TGI (OVCAR-4 ovarian): 2.12 µM; GI50 (KM12 colon): > 100 µM; TGI (KM12 colon): > 100 µM; GI50 (UACC-257 melanoma): > 100 µM; TGI (UACC-257 melanoma): > 100 µM; GI50 (RXF 393 renal): 2.75 µM; TGI (RXF 393 renal): 11.4 µM; GI50 (SNB-19 CNS): 14.6 µM; TGI (SNB-19 CNS): 33.1 µM; GI50 (PC-3 prostate): 10.4 µM; TGI (PC-3 prostate): > 100 µM; GI50 (HT29 colon): 5.05 µM; TGI (HT29 colon): > 100 µM; GI50 (ACHN renal): 2.65 µM; TGI (ACHN renal): 11.2 µM; GI50 (OVCAR-3 ovarian): 2.27 µM; TGI (OVCAR-3 ovarian): 10.9 µM; GI50 (NCI-H226 lung): 2.52 µM; TGI (NCI-H226 lung): 13.4 µM; GI50 (MCF7 breast): 3.44 µM; TGI (MCF7 breast): > 100 µM; GI50 (HL-60(TB) leukemia): > 100 µM; TGI (HL-60(TB) leukemia): > 100 µM; GI50 (SK-MEL-2 melanoma): 16.4 µM; TGI (SK-MEL-2 melanoma): 32.1 µM; GI50 (MALME-3M melanoma): 5.48 µM; TGI (MALME-3M melanoma): 29.1 µM; GI50 (SK-MEL-28 melanoma): 36.9 µM; TGI (SK-MEL-28 melanoma): > 100 µM; GI50 (BT-549 breast): 18.2 µM; TGI (BT-549 breast): 58 µM; GI50 (OVCAR-5 ovarian): 16.8 µM; TGI (OVCAR-5 ovarian): > 100 µM; GI50 (T-47D breast): 0.97 µM; TGI (T-47D breast): 9.48 µM; GI50 (M14 melanoma): 18.5 µM; TGI (M14 melanoma): > 100 µM; GI50 (COLO 205 colon): > 100 µM; TGI (COLO 205 colon): > 100 µM; GI50 (DU-145 prostate): 16.1 µM; TGI (DU-145 prostate): > 100 µM; GI50 (CAKI-1 renal): 5.21 µM; TGI (CAKI-1 renal): 19.1 µM; GI50 (NCI/ADR-RES ovarian): 4.6 µM; TGI (NCI/ADR-RES ovarian): > 100 µM; GI50 (HCT-116 colon): 0.81 µM; TGI (HCT-116 colon): 10.3 µM; GI50 (HCT-15 colon): 12.3 µM; TGI (HCT-15 colon): > 100 µM; GI50 (HOP-62 NSCLC): 10.6 µM; TGI (HOP-62 NSCLC): 26.4 µM
